Test results as given in patent US6905834B1, “Bioluminescent bioreporter integrated circuit detection methods” (UT-Battelle, LLC, priority 1997, dated 2005).
Where two headings read alike, the source gives them in different places. Marks after values point to notes of the source that are not given here.

What was measured:
P. putida TVA8 = type: cell-based, Pseudomonas putida; conditions: for light response (in words): approximately 50 mg/L (JP-4 approx. 2%), 2 h; for Specific Bioluminescence: approximately 50 mg/L
P. fluorescens HK44 = type: cell-based, Pseudomonas fluorescens
Text: A previously developed PBR system with on-line instrumentation (Webb, 1992; Webb et al., 1991) was used to measure bacterial degradative and bioluminescent activity under conditions mimicking those of the subsurface. The reactor design is detailed in FIG. 21. The PBR was temperature controlled and fitted with metal frits welded to the inlet and outlet to retain and distribute feed to immobilized cultures. An additional inter-cavity insert allowed the installation of filters (e.g., […] inorganic and polymeric) between the packed bed and outlet frit that filtered the effluent for automatic injection into the on-line high-performance liquid chromatography (HPLC) and that produced a uniform resistance to flow that improved the overall distribution to the reactor (Webb, 1992). […] HPLC pumps supplied media to each reactor from pressurized feed reservoirs. All nutrients, including oxygen, entered the reactor dissolved in the liquid phase. Naphthalene and salicylate were detected with an on-line HPLC using a Vydac TP20154 column (Sep/A/Ra/Tions Group, Hesperia, Calif.) with a FL-4 dual-monochromator fluorescent detector (Perkin-Elmer, Norwalk, Conn.). Respective excitation and emission wavelengths for salicylate detection were 290 and 360 nm. The reactor was fitted with an on-line light detector for monitoring bioluminescent activity (Dunbar, 1992) consisting of a glued fiber bundle (Ensign Bickford Optics, Simsbury, Conn.) placed approximately 2.5 cm from the entrance of the reactor. An Oriel Inc. (Stratford, Conn.) 7070 photomultiplier detection system using a Model 77348 photomultiplier tube (radiant sensitivity of […] near 500 nm) were employed.
Mineral salts media (pH 7.2) consisting of MgSO4 7H2O ([…]), NH4NO3 ([…]), trizma™ base ([…]), MgO (1.0×10^−3 g/l), CaCl2 (2.9×10^−4 g/l), FeCl3.6H2O (5.4×10^−4 g/l), ZnSO4.7H2O (1.4×10^−4 g/l), CuSO4 (2.5×10^−5 g/l), […] (6.2×10^−6 g/l), and Na2MoO4.H2O (4.9×10^−5 g/l) were supplied to the reactor with an appropriate carbon source for degradation and bioluminescence studies. Kinetic bacterial studies were phosphate limited and maintained aerobic by con-trolled pressurization of feeds and the reactor.
The HK44 was prepared for immobilization by adding freshly thawed inoculum (frozen at −70° C. until use) to 100 mL of YEPG media which contained glucose (1.0 g/l), polypeptone (2.0 g/l), yeast extract (0.2 g/l), NH4NO3 (0.2 g/l), and tetracycline (14 mg/l). The culture was shaken for 15 hours at 25° C. and then centrifuged at 8000 rpm for 10 minutes. The pellet was then washed with 0.9% NaCl solution three times before immobilization. The concentration of HK44 was enumerated by measuring optical density at 546 nm. The HK44 was immobilized by suspending bacteria in 0.9% NaCl solution and mixing with a low-viscosity alginate (28 g/L) and NaCl (9 g/L) solution in a ratio of 1:2 by volume. Beads were formed by controlled dropwise addition to 0.1 M CaCl2 solution by a syringe needle installed in an air jet controlled by a precision regulator (Porter Instrument Co., Hatfield, Pa.) and a piece of 0.003-in. (i.d.) tubing. Beads diameters were measured using gentle wet sieving. Alginate beads were dissolved in 50 mM sodium hexametaphosphate. […]

[1] = Adsorption isotherms on calcium alginate; type: physicochemical
Protocol: Tracer concentrations were measured using a Waters ion-chromatography system with a series 510 HPLC pump, IC-PAK anion exchange column, and 431 conductance detector (Waters, Cam-bridge, MA) or monitored continuously using fluorescence.

P. putida B2 = assay: Immobilized cell reactor (DVR) with alginate-encapsulated P. putida B2: bioluminescence and TCE co-metabolism; type: cell-based, Pseudomonas putida
Protocol: In the batch and reactor studies, bioluminescence was measured using a photomultiplier, which converts the light to an electric current. The photomultiplier in the resting cell assays and the reactor system was connected to a computer and bioluminescence as namps current was recorded.
P. putida B2 was encapsulated in alginate beads for the immobilized cell reactor system. Cells were grown in 1 L LB to an OD546 of 1.2 and were centrifuged at 5500×g for 10 min, washed three times in 0.9% NaCl and suspended in 40 ml 0.9% NaCl. The cell suspension was added to 80 ml of an alginic acid solution (28 g L^−1 low viscosity alginate, 0.9% NaCl) (Webb, 1992). The cell-alginate suspension was placed in a 60-ml syringe, forced through a 25-gauge needle, and allowed to drop into a 0.5 M CaCl2 Solution. The alginate was cross-linked by the Ca^2+ ions, thus encapsulating the cells. The cells were subsequently placed in a fresh solution of 0.1 M CaCl2 and allowed to sit for 30 min prior to use.
A differential volume reactor (DVR) was used to simulate a section of an ideal plug flow reactor. Influent to the reactor was dispersed through a porous metal frit to provide a flat velocity profile to the bed. The reactor measured 5.0 cm i.d.×5.0 cm long. A complete description of this reactor can be found in Webb et al. (1991). In this investigation, a system was designed incorporating the DVR as illustrated in FIG. 17. The system was equipped with three Millipore (Bedford, Mass.) stainless steel substrate containers rated to 690 kPa. The feed from the substrate vessels to the reactor inlet was controlled by two Filson (Middleton, Wis.) 301 HPLC pumps. A flow rate of 0.4 ml min^−1 was maintained. The substrate vessels were pressurized with oxygen to provide the system with an electron acceptor. All medium vessels contained trace mineral medium (Lackey et al., 1993) with the addition of 3 mg L^−1 pyruvic acid and a 0.1 M solution of Tris-base (pH 7.0). phosphate buffers were not used since phosphate ions complex with Ca^2+ ions and disrupt with alginate crosslinking. In addition to this medium, two of the vessels contained either TCE or toluene. The inlet concentration of toluene was altered by using square-wave perturbations with 20-h cycles (10 h with toluene, 10 h without toluene) using an HPLC pump controlled by a timer. During feed portions of the cycle, 10 mg L^−1 toluene was introduced into the inlet of the reactor. The inlet TCE concentration was constant at 20 mg L^−1.
Analysis of TCE in the reactor effluent was performed online using a stripping column (12.5 cm length and 0.4 cm inner diameter) packed with 3-mm glass beads to provide adequate surface area for TCE separation. TCE was stripped with helium, the GC carrier gas. The stripping column outlet was attached to a gas chromatograph (GC, Hewlett Packard (Wilmington, Del.) (HP) 5890 Series II) with an electron capture detector by a heated sample line maintained at 75° C. Automatic injections (25 μl) were made by a computerized control process (HP Chem Station software). The GC was equipped with a cross-linked methyl silicone capillary column (length 30 n, i.d 0.2 mm, 0.33-μm film thickness) while the oven was operated isothermally at 60° C. Other operating parameters included an injection temperature of 150° C., detector temperature of 200° C. and a split ratio of 10:1. This system was equipped with a bypass line around the reactor in order to calibrate the stripping column.
Toluene samples were removed at 0.5-ml aliquots from the effluent sampling port (FIG. 17) and injected into 1.5 ml sample vials. Headspace analysis was performed using a Shimadzu (Columbia, Md.) GC-9A gas chromatograph equipped with a 2.44-m, 3.2-mm diameter Poropak N packed column and a flame ionization detector. The isothermal temperature of the oven was 210° C., and both the detector and injector temperatures were 220° C.

[2] = exposure 2 hours, normalized to final OD546, average ± SD of three replicates
[3] = inlet TCE 20 mg/L, toluene being introduced

c1ccccc1 [Benzene, benzene]
light response (in words) (P. putida TVA8): significant light response | Specific Bioluminescence (P. putida TVA8; [2]): 242 ± 9 namp/OD

CCc1ccccc1 [Ethylbenzene, ethylbenzene]
induction of bioluminescence response in pre-grown cells (P. putida TVA8; 50 mg/L, cells previously grown on ethylbenzene, growing cell assays): induce the bioluminescence response without a lag period | Specific Bioluminescence (P. putida TVA8; [2]): 1.0 ± 0.2 namp/OD | Specific Bioluminescence (P. putida TVA8; exposure 4 hours, from a similar but separate study): 47 ± 6^c namp/OD

Oc1ccccc1 [Phenol, phenol]
light response (in words) (P. putida TVA8): significant light response | Specific Bioluminescence (P. putida TVA8; [2]): 70 ± 2 namp/OD

O=C([O-])c1ccccc1O.[Na+] [Sodium salicylate, sodium salicylate]
least-squares reaction rate constant, overall second order model (P. fluorescens HK44; complete data set, figure legends): 2.23×10^−2 dm^3/g mol | Salicylate effluent ± σ (P. fluorescens HK44; experiment 1a, biomass 3.3 × 10^9 cells/mL, feed 2.25 mg/L, τ 14 min): 1.43 ± 2.85 × 10^−2 mg/L | Salicylate effluent ± σ (P. fluorescens HK44; experiment 1b, biomass 3.3 × 10^9 cells/mL, feed 2.25 mg/L, τ 58 min): 0.46 ± 0.84 × 10^−2 mg/L | Salicylate effluent ± σ (P. fluorescens HK44; experiment 1c, biomass 3.3 × 10^9 cells/mL, feed 2.25 mg/L, τ 14 min): 1.65 ± 4.77 × 10^−2 mg/L | Salicylate effluent ± σ (P. fluorescens HK44; experiment 2a, biomass 3.5 × 10^9 cells/mL, feed 2.47 mg/L, τ 24 min): 1.03 ± 2.83 × 10^−2 mg/L | Salicylate effluent ± σ (P. fluorescens HK44; experiment 2b, biomass 3.5 × 10^9 cells/mL, feed 2.47 mg/L, τ 26 min): 0.86 ± 0.93 × 10^−2 mg/L | Salicylate effluent ± σ (P. fluorescens HK44; experiment 2c, biomass 3.5 × 10^9 cells/mL, feed 2.47 mg/L, τ 94 min): 0.20 + 0.28 × 10^−2 mg/L | Salicylate effluent ± σ (P. fluorescens HK44; experiment 3a, biomass […] 10^9 cells/mL, feed 4.45 mg/L, τ 15 min): 4.06 ± 8.85 × 10^−2 mg/L | Salicylate effluent ± σ (P. fluorescens HK44; experiment 3b, biomass […] 10^9 cells/mL, feed 4.45 mg/L, τ 18 min): 3.84 ± 6.99 × 10^−2 mg/L | Salicylate effluent ± σ (P. fluorescens HK44; experiment 3c, biomass […] 10^9 cells/mL, feed 4.45 mg/L, τ 24 min): 3.42 ± 8.55 × 10^−2 mg/L | Salicylate effluent ± σ (P. fluorescens HK44; experiment 3f, biomass […] 10^9 cells/mL, feed 4.45 mg/L, τ 24 min): 3.12 ± 4.09 × 10^−2 mg/L | Salicylate effluent ± σ (P. fluorescens HK44; experiment 4b, biomass […] 10^9 cells/mL, feed 4.45 mg/L, τ 36 min): 2.76 ± 3.95 × 10^−2 mg/L | Salicylate effluent ± σ (P. fluorescens HK44; experiment 4c, biomass […] 10^9 cells/mL, feed 4.45 mg/L, τ 48 min): 2.25 ± 3.47 × 10^−2 mg/L | Salicylate effluent ± σ (P. fluorescens HK44; experiment 4e, biomass […] 10^9 cells/mL, feed 4.45 mg/L, τ 150 min): 0.89 ± 1.54 × 10^−2 mg/L | Salicylate effluent ± σ (P. fluorescens HK44; experiment 4f, biomass […] 10^9 cells/mL, feed 4.45 mg/L, τ 48 min): 2.24 + 3.49 × 10^−2 mg/L | Salicylate effluent ± σ (P. fluorescens HK44; experiment 3d, biomass […] 10^9 cells/mL, feed 4.45 mg/L, τ 36 min): 2.77 + 4.24 × 10^−2 mg/L | Salicylate effluent ± σ (P. fluorescens HK44; experiment 4d, biomass […] 10^9 cells/mL, feed 4.45 mg/L, τ 72 min): 1.75 ± 2.03 × 10^−2 mg/L | salicylate degradation rate constant (first order in biomass, first order in salicylate) (P. fluorescens HK44; fitted to subset 1a-c): 1.88×10^−2 dm^3 g^−1 min^−1 | salicylate degradation rate constant (first order in biomass, first order in salicylate) (P. fluorescens HK44; fitted to subset 2a-c): 2.85×10^−2 dm^3 g^−1 min^−1 | salicylate degradation rate constant (first order in biomass, first order in salicylate) (P. fluorescens HK44; fitted to subset 3a-f): 2.06×10^−2 dm^3 g^−1 min^−1 | salicylate degradation rate constant (first order in biomass, first order in salicylate) (P. fluorescens HK44; fitted to subset 4a-f): 2.28×10^−2 dm^3 g^−1 min^−1 | salicylate degradation rate constant (first order in biomass, first order in salicylate) (P. fluorescens HK44; fitted to the complete set): 2.23×10^−2 dm^3 g^−1 min^−1 | slope of best-fit line, specific light response vs predicted salicylate concentration at the light probe (P. fluorescens HK44; studies 2a-c): 1.4 | slope of best-fit line, specific light response vs predicted salicylate concentration at the light probe (P. fluorescens HK44; studies 3c-e): 2.3 | slope of best-fit line, specific light response vs predicted salicylate concentration at the light probe (P. fluorescens HK44; studies 4c-f): 1.5 | conversion (P. fluorescens HK44; study 1a): 0.64 | conversion (P. fluorescens HK44; study 1c): 0.73 | conversion (P. fluorescens HK44; study 3c): 0.77 | conversion (P. fluorescens HK44; study 3e): 0.41 | conversion (P. fluorescens HK44; study 3f): 0.70 | conversion (P. fluorescens HK44; study 4b): 0.62 | conversion (P. fluorescens HK44; study 4c): 0.50 | conversion (P. fluorescens HK44; study 4f): 0.50 | conversion (P. fluorescens HK44; study 3d): 0.62 | conversion (P. fluorescens HK44; study 4d): 0.39 | adsorption on calcium alginate (in words) ([1]; listed as Salicylate): did not measurably absorb | adsorption on calcium alginate (in words) ([1]; listed as salicylate): did not appreciably partition

ClC=C(Cl)Cl [TCE, trichloroethylene]
toxic effects of continuous TCE exposure (in words) (P. putida B2; 20 mg/l TCE): there did not appear to be any toxic effects | induction of the tod operon by TCE (in words) (P. putida B2; absence of toluene, 20 mg/L TCE): did not appear to induce the tod operon | TCE removal (P. putida B2; [3]): 20% | steady-state TCE effluent concentration (P. putida B2; [3]): 16.5 ± 0.2 mg/L

Cc1cccc(C)c1 [m-xylene]
light response (in words) (P. putida TVA8): significant light response | Specific Bioluminescence (P. putida TVA8; [2]): 38 ± 3 namp/OD

Cc1ccccc1C [o-xylene]
light response (in words) (P. putida TVA8): no increase of bioluminescence | Specific Bioluminescence (P. putida TVA8; [2]): 0.5 ± 0.1 namp/OD

Cc1ccc(C)cc1 [p-xylene]
light response (in words) (P. putida TVA8): significant light response | Specific Bioluminescence (P. putida TVA8; [2]): 24 ± 2 namp/OD
